Reference: ChEMBL document CHEMBL1681651, “A broad spectrum anticancer nucleoside with selective toxicity against human colon cells in vitro” (2011)

Columns and labels:
Assay type in all cases: functional
K562 = test: Growth inhibition of human K562 cells assessed as cell growth at 10 uM after 48 hrs by SRB assay; conditions: K562, 48 h, read-out: Activity
[1] = Growth inhibition of human […] cells assessed as cell growth at 10 uM after 48 hrs by SRB assay; conditions: read-out: Activity
HOP-92 [2] = test: Growth inhibition of human HOP92 cells after 48 hrs by […] growth inhibition assay; conditions: HOP-92, 48 h
NCI-H460 = test: Growth inhibition of human NCI-H460 cells after 48 hrs by […] growth inhibition assay; conditions: NCI-H460, 48 h
M14 [3] = test: Growth inhibition of human M14 cells after 48 hrs by […] growth inhibition assay; conditions: M14, 48 h
SK-MEL-28 = test: Growth inhibition of human SK-MEL-28 cells after 48 hrs by […] growth inhibition assay; conditions: SK-MEL-28, 48 h
SK-MEL-5 = test: Growth inhibition of human SK-MEL-5 cells after 48 hrs by […] growth inhibition assay; conditions: SK-MEL-5, 48 h
UACC-257 = test: Growth inhibition of human UACC257 cells after 48 hrs by […] growth inhibition assay; conditions: UACC-257, 48 h
U-251 [4] = test: Growth inhibition of human U251 cells after 48 hrs by […] growth inhibition assay; conditions: U-251, 48 h
SK-OV-3 = test: Growth inhibition of human SKOV3 cells after 48 hrs by […] growth inhibition assay; conditions: SK-OV-3, 48 h
MCF7 = test: Growth inhibition of human MCF7 cells after 48 hrs by […] growth inhibition assay; conditions: MCF7, 48 h
SNB-75 [5] = test: Growth inhibition of human SNB75 cells assessed as cell growth at 0.1 uM after 48 hrs by SRB assay; conditions: SNB-75, 48 h, read-out: Activity
RXF 393 [6] = test: Growth inhibition of human RXF393 cells assessed as cell growth at 0.1 uM after 48 hrs by SRB assay; conditions: RXF 393, 48 h, read-out: Activity
TK-10 [7] = test: Growth inhibition of human TK10 cells assessed as cell growth at 0.1 uM after 48 hrs by SRB assay; conditions: TK-10, 48 h, read-out: Activity
SNB-75 [8] = test: Growth inhibition of human SNB75 cells assessed as cell growth at 10 uM after 48 hrs by SRB assay; conditions: SNB-75, 48 h, read-out: Activity
U-251 [9] = test: Growth inhibition of human U251 cells assessed as cell growth at 10 uM after 48 hrs by SRB assay; conditions: U-251, 48 h, read-out: Activity
M14 [10] = test: Growth inhibition of human M14 cells assessed as cell growth at 10 uM after 48 hrs by SRB assay; conditions: M14, 48 h, read-out: Activity
786-0 = test: Growth inhibition of human 786-0 cells assessed as cell growth at 10 uM after 48 hrs by SRB assay; conditions: 786-0, 48 h, read-out: Activity
BT-549 = test: Growth inhibition of human BT549 cells assessed as cell growth at 10 uM after 48 hrs by SRB assay; conditions: BT-549, 48 h, read-out: Activity
HOP-92 [11] = test: Growth inhibition of human HOP92 cells assessed as cell growth at 100 uM after 48 hrs by SRB assay; conditions: HOP-92, 48 h, read-out: Activity
SF-295 = test: Growth inhibition of human SF295 cells assessed as cell growth at 100 uM after 48 hrs by SRB assay; conditions: SF-295, 48 h, read-out: Activity
M14 [12] = test: Growth inhibition of human M14 cells assessed as cell growth at 100 uM after 48 hrs by SRB assay; conditions: M14, 48 h, read-out: Activity
OVCAR-4 = test: Growth inhibition of human OVCAR4 cells assessed as cell growth at 100 uM after 48 hrs by SRB assay; conditions: OVCAR-4, 48 h, read-out: Activity
TK-10 [13] = test: Growth inhibition of human TK10 cells assessed as cell growth at 100 uM after 48 hrs by SRB assay; conditions: TK-10, 48 h, read-out: Activity
CCRF-CEM = test: Growth inhibition of human CCRF-CEM cells assessed as cell growth at 1 mM after 48 hrs by SRB assay; conditions: read-out: Activity
HCT-116 = test: Growth inhibition of human HCT116 cells assessed as cell growth at 1 mM after 48 hrs by SRB assay; conditions: HCT-116, 48 h, read-out: Activity
SK-MEL-2 = test: Growth inhibition of human SK-MEL-2 cells assessed as cell growth at 1 mM after 48 hrs by SRB assay; conditions: SK-MEL-2, 48 h, read-out: Activity
RXF 393 [14] = test: Growth inhibition of human RXF393 cells assessed as cell growth at 1 mM after 48 hrs by SRB assay; conditions: RXF 393, 48 h, read-out: Activity
EKVX = test: Growth inhibition of human EKVX cells assessed as cell growth at 1 uM after 48 hrs by SRB assay; conditions: read-out: Activity
UACC-62 = test: Growth inhibition of human UACC62 cells assessed as cell growth at 1 uM after 48 hrs by SRB assay; conditions: UACC-62, 48 h, read-out: Activity
[15] = read-out: LC50 (the source's name)
[16] = read-out: pLC50 (the source's name) (converted)

Structure (SMILES): CCOC(=O)C[C@H]1[C@@H](O[Si](C)(C)C(C)(C)C)[C@H](n2cnc3c(NC(=O)Nc4ccccc4)ncnc32)O[C@@H]1CNC(=O)NC
- growth at 10 µM (K562): 89%
- growth at 10 µM [1]: 53%
- GI50 (HOP-92 [2]; read-out: GI50): < 0.01 µM
- CC50 (HOP-92 [2]; [15]): 41.2 µM
- GI50 (HOP-92 [2]; read-out: pGI50 (converted)): < 0.01 µM
- CC50 (HOP-92 [2]; [16]): 40.7 µM
- GI50 (NCI-H460; read-out: GI50): 5.54 µM
- CC50 (NCI-H460; [15]): > 100 µM
- TGI (NCI-H460; read-out: TGI): 25 µM
- GI50 (NCI-H460; read-out: pGI50 (converted)): 5.5 µM
- CC50 (NCI-H460; [16]): > 100 µM
- TGI (NCI-H460; read-out: pTGI (converted)): 25.1 µM
- GI50 (M14 [3]; read-out: GI50): 2.51 µM
- CC50 (M14 [3]; [15]): 78.6 µM
- TGI (M14 [3]; read-out: TGI): 11.6 µM
- GI50 (M14 [3]; read-out: pGI50 (converted)): 2.51 µM
- CC50 (M14 [3]; [16]): 79.4 µM
- TGI (M14 [3]; read-out: pTGI (converted)): 11.5 µM
- GI50 (SK-MEL-28; read-out: GI50): 6.85 µM
- CC50 (SK-MEL-28; [15]): 48.7 µM
- TGI (SK-MEL-28; read-out: TGI): 20.2 µM
- GI50 (SK-MEL-28; read-out: pGI50 (converted)): 6.92 µM
- CC50 (SK-MEL-28; [16]): > 49 µM
- TGI (SK-MEL-28; read-out: pTGI (converted)): 20.4 µM
- GI50 (SK-MEL-5; read-out: GI50): 4.34 µM
- CC50 (SK-MEL-5; [15]): > 100 µM
- TGI (SK-MEL-5; read-out: TGI): > 100 µM
- GI50 (SK-MEL-5; read-out: pGI50 (converted)): 4.37 µM
- CC50 (SK-MEL-5; [16]): > 100 µM
- TGI (SK-MEL-5; read-out: pTGI (converted)): > 100 µM
- GI50 (UACC-257; read-out: GI50): 5.68 µM
- CC50 (UACC-257; [15]): > 100 µM
- TGI (UACC-257; read-out: TGI): > 100 µM
- GI50 (UACC-257; read-out: pGI50 (converted)): 5.62 µM
- CC50 (UACC-257; [16]): > 100 µM
- TGI (UACC-257; read-out: pTGI (converted)): > 100 µM
- GI50 (U-251 [4]; read-out: GI50): 4.69 µM
- CC50 (U-251 [4]; [15]): 76 µM
- TGI (U-251 [4]; read-out: TGI): 20.9 µM
- GI50 (U-251 [4]; read-out: pGI50 (converted)): 4.68 µM
- CC50 (U-251 [4]; [16]): 75.9 µM
- TGI (U-251 [4]; read-out: pTGI (converted)): 20.9 µM
- GI50 (SK-OV-3; read-out: GI50): 21 µM
- CC50 (SK-OV-3; [15]): > 100 µM
- TGI (SK-OV-3; read-out: TGI): > 100 µM
- GI50 (SK-OV-3; read-out: pGI50 (converted)): 20.9 µM
- CC50 (SK-OV-3; [16]): > 100 µM
- TGI (SK-OV-3; read-out: pTGI): > 100 µM
- GI50 (MCF7; read-out: GI50): 3.42 µM
- CC50 (MCF7; [15]): > 100 µM
- TGI (MCF7; read-out: TGI): 45.1 µM
- GI50 (MCF7; read-out: pGI50 (converted)): 3.39 µM
- CC50 (MCF7; [16]): > 100 µM
- TGI (MCF7; read-out: pTGI (converted)): 44.7 µM
- growth at 0.1 µM (SNB-75 [5]): 92%
- growth at 0.1 µM (RXF 393 [6]): 99%
- growth at 0.1 µM (TK-10 [7]): 98%
- growth at 10 µM (SNB-75 [8]): 85%
- growth at 10 µM (U-251 [9]): 94%
- growth at 10 µM (M14 [10]): 81%
- growth at 10 µM (786-0): 86%
- growth at 10 µM (BT-549): 110%
- growth at 100 µM (HOP-92 [11]): -32%
- growth at 100 µM (SF-295): 38%
- growth at 100 µM (M14 [12]): 4%
- growth at 100 µM (OVCAR-4): 53%
- growth at 100 µM (TK-10 [13]): 59%
- growth at 1000 µM (CCRF-CEM): -2%
- growth at 1000 µM (HCT-116): -88%
- growth at 1000 µM (SK-MEL-2): -30%
- growth at 1000 µM (RXF 393 [14]): -59%
- growth at 1 µM (EKVX): 90%
- growth at 1 µM (UACC-62): 102%
